According to US8802597B2, “Herbicidal pyrimidines” (E I du Pont de Nemours and Company, priority 2003, dated 2014):

What was measured:
Assay type in all cases: in vivo
[1] = test system: giant foxtail (Setaria faberi); assay: Test A pre/postemergence
Method in brief: (§1)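 Compared with untreated controls, treated plants were visually rated for injury on a 0 (none) to 100 (complete control) scale about ten days after spraying. Pre- and postemergence applications used one solvent/surfactant formulation; postemergence plants measured 2–10 cm.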

[2] = test system: redroot pigweed (Amaranthus retroflexus); assay: Test A pre/postemergence
Method in brief: as §1

[3] = test system: barnyardgrass (Echinochloa crus-galli); assay: Test A pre/postemergence
Method in brief: as §1

[4] = test system: morningglory (Ipomoea spp.); assay: Test A pre/postemergence
Method in brief: as §1

[5] = test system: velvetleaf (Abutilon theophrasti); assay: Test A pre/postemergence
Method in brief: as §1

[6] = test system: crabgrass (Digitaria sanguinalis); assay: Test A pre/postemergence
Method in brief: as §1

rice (Oryza sativa) = assay: Test B flooded paddy test; settings: Flood, scale 0 to 100
Description: (§2) At the same time, plants selected from these crop and weed species and also blackgrass (Alopecurus myosuroides) and wild oat (Avena fatua) were treated with postemergence applications of test chemicals formulated in the same manner. Plants ranged in height from 2 to 18 cm (1- to 4-leaf stage) for postemergence treatments. Plant species in the flooded paddy test consisted of rice (Oryza sativa), umbrella sedge (Cyperus difformis), duck salad (Heteranthera limosa) and barnyardgrass (Echinochloa crus-galli) grown to the 2-leaf stage for testing. Treated plants and controls were maintained in a greenhouse for 13 to 15 days, after which time all species were compared to controls and visually evaluated. Plant response ratings, summarized in Table B, are based on a scale of 0 to 100 where 0 is no effect and 100 is complete control. A dash (-) response means no test result.

[7] = test system: duck salad (Heteranthera limosa); assay: Test B flooded paddy test; settings: Flood, scale 0 to 100
Description: as §2

[8] = test system: barnyardgrass (Echinochloa crus-galli); assay: Test B flooded paddy test; settings: Flood, scale 0 to 100
Description: as §2

[9] = test system: umbrella sedge (Cyperus difformis); assay: Test B flooded paddy test; settings: Flood, scale 0 to 100
Description: as §2

[10] = Postemergence, 125 g ai/ha, 0 to 100 scale (0 no effect, 100 complete control)
[11] = Postemergence, 500 g ai/ha, 0 to 100 scale (0 no effect, 100 complete control)
[12] = Preemergence, 125 g ai/ha, 0 to 100 scale where 0 is no effect and 100 is complete control, approximately ten days
[13] = Preemergence, 500 g ai/ha, 0 to 100 scale where 0 is no effect and 100 is complete control, approximately ten days

Nc1nc(C2CC2)nc(C(=O)OCc2ccc(Cl)cc2)c1Cl [Compound 80]
Plant response rating, Foxtail, Giant [1, 10]: 70
Plant response rating, Foxtail, Giant [1, 11]: 90
Plant response rating, Foxtail, Giant [1, 12]: 15
Plant response rating, Foxtail, Giant [1, 13]: 70
Plant response rating, Pigweed [2, 10]: 65
Plant response rating, Pigweed [2, 11]: 95
Plant response rating, Pigweed [2, 12]: 80
Plant response rating, Pigweed [2, 13]: 90
Plant response rating, Barnyardgrass [3, 10]: 55
Plant response rating, Barnyardgrass [3, 11]: 90
Plant response rating, Barnyardgrass [3, 12]: 10
Plant response rating, Barnyardgrass [3, 13]: 80
Plant response rating, Morningglory [4, 10]: 90
Plant response rating, Morningglory [4, 11]: 95
Plant response rating, Morningglory [4, 12]: 90
Plant response rating, Morningglory [4, 13]: 100
Plant response rating, Velvetleaf [5, 10]: 65
Plant response rating, Velvetleaf [5, 11]: 90
Plant response rating, Velvetleaf [5, 12]: 75
Plant response rating, Velvetleaf [5, 13]: 90
Plant response rating, Crabgrass [6, 10]: 30
Plant response rating, Crabgrass [6, 11]: 70
Plant response rating, Crabgrass [6, 12]: 45
Plant response rating, Crabgrass [6, 13]: 85
Plant response rating, Rice (rice (Oryza sativa); 125 g ai/ha): 0
Plant response rating, Rice (rice (Oryza sativa); 500 g ai/ha): 50
Plant response rating, Ducksalad ([7]; 125 g ai/ha): 50
Plant response rating, Ducksalad ([7]; 500 g ai/ha): 70
Plant response rating, Barnyardgrass ([8]; 125 g ai/ha): 0
Plant response rating, Barnyardgrass ([8]; 500 g ai/ha): 50
Plant response rating, Sedge, Umbrella ([9]; 125 g ai/ha): 20
Plant response rating, Sedge, Umbrella ([9]; 500 g ai/ha): 70
